{
  "source": "patent US4017595A",
  "about": "(Research Corporation, priority 1975, dated 1977)",
  "assay": "Organ distribution of Indium-113m EDTMP and DTPMP complexes in rabbits, simultaneous study with Strontium-85",
  "format": "in vivo, adult albino rabbits",
  "conditions": "DTPMP group; for % Dose/1% Bodyweight, Average Bone: mean of femur, tibia, spine and pelvis; for % Dose in Whole Organ, Blood / % Dose in Whole Organ, Kidney / % Dose in Whole Organ, Liver / % Dose in Whole Organ, Marrow / % Dose in Whole Organ, Muscle / % Dose in Whole Organ, One Femur / % Dose in Whole Organ, One Tibia / % Dose in Whole Organ, Urine / % Dose/1% Bodyweight, Blood / % Dose/1% Bodyweight, Femur / % Dose/1% Bodyweight, Kidney / % Dose/1% Bodyweight, Liver / % Dose/1% Bodyweight, Marrow / % Dose/1% Bodyweight, Muscle / % Dose/1% Bodyweight, Pelvis / % Dose/1% Bodyweight, Spine / % Dose/1% Bodyweight, Tibia / Ratio Bone/Blood / Ratio Bone/Marrow / Ratio Bone/Muscle: rabbit i.v.",
  "method": "0.5-1.0 mCi of the complexes prepared according to Examples 1 and 4 (containing 2-5 mg of the phosphonate complex) were injected intravenously into adult albino rabbits weighing 3.5-5 kg. […] Organ distribution characteristics of these compositions were determined after sacrificing the animals 1-4 hours after injection using the method described in Perez et al, J. Nucl. Med. 13:788-789, 1972; Subramanian et al, Radiology, 98:192-196, 1971; Subramanian et al, Radiology, 102:701-704, 1972; Subramanian et al, J. Nucl. Med., 13:947-950, 1972; Tofe et al, J. Nucl. Med., 15:69-74, 1974; Yano, J. Nucl Med., 14:73-78, 1973; Castronova et al, J. Nucl. Med., 13:823-827, 1972; and Subramanian et al, J. Nucl. Med., August, 1975 (U.S. application Ser. No. 368,473, filed June 11, 1973). Appropriate corrections were made for Strontium-85 contributions in the Indium-113m windows.\nFor each time interval 3 animals were used and average values are set forth. The average bone concentrations expressed as % dose/1% body weight: […]\n% dose/1% body weight [formula] are the mean of the concentrations in bone samples from femur, tibia, spine and pelvis. This value was calculated for individual rabbits and the mean value of these averages are shown. The values for ratios were calculated in a similar manner.\nWith respect to Table 1, Strontium 85 was employed as a biological standard to compare the uptake in various organs of individual groups of animals. In quantifying the bone uptake, it is necessary to compare more than merely the indium concentration from one group to another. In addition, the ratios of indium to strontium from each group should be compared because of the individual variation of bone uptake in animals.",
  "data": [
    {"smiles": "O=P(O)(O)CN(CCN(CP(=O)(O)O)CP(=O)(O)O)CCN(CP(=O)(O)O)CP(=O)(O)O", "note": "[DTPMP, diethylene triamine penta(methylene phosphonic) acid]", "values": [
      {"measurement": "% Dose/1% Bodyweight, Average Bone", "setting": "1 Hr.", "result": 5.14, "unit": "% Dose/1% Bodyweight"},
      {"measurement": "% Dose in Whole Organ, Blood", "setting": "1 Hr.", "result": 8.61, "unit": "% Dose"},
      {"measurement": "% Dose in Whole Organ, Kidney", "setting": "1 Hr.", "result": 2.43, "unit": "% Dose"},
      {"measurement": "% Dose in Whole Organ, Liver", "setting": "1 Hr.", "result": 0.702, "unit": "% Dose"},
      {"measurement": "% Dose in Whole Organ, Marrow", "setting": "1 Hr.", "result": 0.710, "unit": "% Dose"},
      {"measurement": "% Dose in Whole Organ, Muscle", "setting": "1 Hr.", "result": 4.61, "unit": "% Dose"},
      {"measurement": "% Dose in Whole Organ, One Femur", "setting": "1 Hr.", "result": 0.782, "unit": "% Dose"},
      {"measurement": "% Dose in Whole Organ, One Tibia", "setting": "1 Hr.", "result": 0.641, "unit": "% Dose"},
      {"measurement": "% Dose in Whole Organ, Urine", "setting": "1 Hr.", "result": 31.2, "unit": "% Dose"},
      {"measurement": "% Dose/1% Bodyweight, Blood", "setting": "1 Hr.", "result": 1.23, "unit": "% Dose/1% Bodyweight"},
      {"measurement": "% Dose/1% Bodyweight, Femur", "setting": "1 Hr.", "result": 3.57, "unit": "% Dose/1% Bodyweight"},
      {"measurement": "% Dose/1% Bodyweight, Kidney", "setting": "1 Hr.", "result": 5.62, "unit": "% Dose/1% Bodyweight"},
      {"measurement": "% Dose/1% Bodyweight, Liver", "setting": "1 Hr.", "result": 0.276, "unit": "% Dose/1% Bodyweight"},
      {"measurement": "% Dose/1% Bodyweight, Marrow", "setting": "1 Hr.", "result": 0.322, "unit": "% Dose/1% Bodyweight"},
      {"measurement": "% Dose/1% Bodyweight, Muscle", "setting": "1 Hr.", "result": 0.107, "unit": "% Dose/1% Bodyweight"},
      {"measurement": "% Dose/1% Bodyweight, Pelvis", "setting": "1 Hr.", "result": 7.15, "unit": "% Dose/1% Bodyweight"},
      {"measurement": "% Dose/1% Bodyweight, Spine", "setting": "1 Hr.", "result": 4.80, "unit": "% Dose/1% Bodyweight"},
      {"measurement": "% Dose/1% Bodyweight, Tibia", "setting": "1 Hr.", "result": 3.39, "unit": "% Dose/1% Bodyweight"},
      {"measurement": "Ratio Bone/Blood", "setting": "1 Hr.", "result": 4.17},
      {"measurement": "Ratio Bone/Marrow", "setting": "1 Hr.", "result": 15.9},
      {"measurement": "Ratio Bone/Muscle", "setting": "1 Hr.", "result": 48.0},
      {"measurement": "% Dose/1% Bodyweight, Average Bone", "setting": "2 Hr.", "result": 4.58, "unit": "% Dose/1% Bodyweight"},
      {"measurement": "% Dose in Whole Organ, Blood", "setting": "2 Hr.", "result": 3.88, "unit": "% Dose"},
      {"measurement": "% Dose in Whole Organ, Kidney", "setting": "2 Hr.", "result": 1.09, "unit": "% Dose"},
      {"measurement": "% Dose in Whole Organ, Liver", "setting": "2 Hr.", "result": 0.453, "unit": "% Dose"},
      {"measurement": "% Dose in Whole Organ, Marrow", "setting": "2 Hr.", "result": 0.340, "unit": "% Dose"},
      {"measurement": "% Dose in Whole Organ, Muscle", "setting": "2 Hr.", "result": 1.92, "unit": "% Dose"},
      {"measurement": "% Dose in Whole Organ, One Femur", "setting": "2 Hr.", "result": 0.648, "unit": "% Dose"},
      {"measurement": "% Dose in Whole Organ, One Tibia", "setting": "2 Hr.", "result": 0.519, "unit": "% Dose"},
      {"measurement": "% Dose in Whole Organ, Urine", "setting": "2 Hr.", "result": 65.7, "unit": "% Dose"},
      {"measurement": "% Dose/1% Bodyweight, Blood", "setting": "2 Hr.", "result": 0.555, "unit": "% Dose/1% Bodyweight"},
      {"measurement": "% Dose/1% Bodyweight, Femur", "setting": "2 Hr.", "result": 3.07, "unit": "% Dose/1% Bodyweight"},
      {"measurement": "% Dose/1% Bodyweight, Kidney", "setting": "2 Hr.", "result": 2.40, "unit": "% Dose/1% Bodyweight"},
      {"measurement": "% Dose/1% Bodyweight, Liver", "setting": "2 Hr.", "result": 0.173, "unit": "% Dose/1% Bodyweight"},
      {"measurement": "% Dose/1% Bodyweight, Marrow", "setting": "2 Hr.", "result": 0.154, "unit": "% Dose/1% Bodyweight"},
      {"measurement": "% Dose/1% Bodyweight, Muscle", "setting": "2 Hr.", "result": 0.044, "unit": "% Dose/1% Bodyweight"},
      {"measurement": "% Dose/1% Bodyweight, Pelvis", "setting": "2 Hr.", "result": 6.15, "unit": "% Dose/1% Bodyweight"},
      {"measurement": "% Dose/1% Bodyweight, Spine", "setting": "2 Hr.", "result": 4.59, "unit": "% Dose/1% Bodyweight"},
      {"measurement": "% Dose/1% Bodyweight, Tibia", "setting": "2 Hr.", "result": 2.92, "unit": "% Dose/1% Bodyweight"},
      {"measurement": "Ratio Bone/Blood", "setting": "2 Hr.", "result": 8.25},
      {"measurement": "Ratio Bone/Marrow", "setting": "2 Hr.", "result": 29.7},
      {"measurement": "Ratio Bone/Muscle", "setting": "2 Hr.", "result": 104},
      {"measurement": "% Dose/1% Bodyweight, Average Bone", "setting": "4 Hr.", "result": 4.79, "unit": "% Dose/1% Bodyweight"},
      {"measurement": "% Dose in Whole Organ, Blood", "setting": "4 Hr.", "result": 3.08, "unit": "% Dose"},
      {"measurement": "% Dose in Whole Organ, Kidney", "setting": "4 Hr.", "result": 1.03, "unit": "% Dose"},
      {"measurement": "% Dose in Whole Organ, Liver", "setting": "4 Hr.", "result": 0.354, "unit": "% Dose"},
      {"measurement": "% Dose in Whole Organ, Marrow", "setting": "4 Hr.", "result": 0.432, "unit": "% Dose"},
      {"measurement": "% Dose in Whole Organ, Muscle", "setting": "4 Hr.", "result": 1.92, "unit": "% Dose"},
      {"measurement": "% Dose in Whole Organ, One Femur", "setting": "4 Hr.", "result": 0.621, "unit": "% Dose"},
      {"measurement": "% Dose in Whole Organ, One Tibia", "setting": "4 Hr.", "result": 0.471, "unit": "% Dose"},
      {"measurement": "% Dose in Whole Organ, Urine", "setting": "4 Hr.", "result": 69.9, "unit": "% Dose"},
      {"measurement": "% Dose/1% Bodyweight, Blood", "setting": "4 Hr.", "result": 0.441, "unit": "% Dose/1% Bodyweight"},
      {"measurement": "% Dose/1% Bodyweight, Femur", "setting": "4 Hr.", "result": 2.97, "unit": "% Dose/1% Bodyweight"},
      {"measurement": "% Dose/1% Bodyweight, Kidney", "setting": "4 Hr.", "result": 2.28, "unit": "% Dose/1% Bodyweight"},
      {"measurement": "% Dose/1% Bodyweight, Liver", "setting": "4 Hr.", "result": 0.184, "unit": "% Dose/1% Bodyweight"},
      {"measurement": "% Dose/1% Bodyweight, Marrow", "setting": "4 Hr.", "result": 0.196, "unit": "% Dose/1% Bodyweight"},
      {"measurement": "% Dose/1% Bodyweight, Muscle", "setting": "4 Hr.", "result": 0.044, "unit": "% Dose/1% Bodyweight"},
      {"measurement": "% Dose/1% Bodyweight, Pelvis", "setting": "4 Hr.", "result": 6.37, "unit": "% Dose/1% Bodyweight"},
      {"measurement": "% Dose/1% Bodyweight, Spine", "setting": "4 Hr.", "result": 5.16, "unit": "% Dose/1% Bodyweight"},
      {"measurement": "% Dose/1% Bodyweight, Tibia", "setting": "4 Hr.", "result": 2.76, "unit": "% Dose/1% Bodyweight"},
      {"measurement": "Ratio Bone/Blood", "setting": "4 Hr.", "result": 10.8},
      {"measurement": "Ratio Bone/Marrow", "setting": "4 Hr.", "result": 24.4},
      {"measurement": "Ratio Bone/Muscle", "setting": "4 Hr.", "result": 108}
    ]}
  ]
}
